Experimental data reported in patent US20260109725A1, “MACROLIDE SENOLYTIC COMPOUNDS” (LUNELLA BIOTECH, INC., priority 2022, published 2026).

How the values were obtained:
senescent MRC-5 cells = assay: Images of MRC-5 fibroblasts with BrdU pre-treatment; assay type: cell-based, human; details: 50 μM
Description: (§1) FIGS. 3A and 3B are images of MRC-5 fibroblasts without and with BrdU pre-treatment, respectively, treated with Compound [I] at a concentration of 50 μM. […] The scale bar in the upper-right of FIGS. 3B and 3C represents 20 μm.
(§2) BrdU Assay: Cells were plated into 24-well plates. Next day, half of the plate was treated with 100 μM of BrdU while control wells were treated with vehicle only (DMSO) and incubated for 8 days at 37° C. in a 5% CO2 humidified atmosphere. After 8 days of BrdU treatment cells were treated with various test compounds or drugs (e.g., azithromycin, roxithromycin, telithromycin, erythromycin, etc.) for another 3-5 days. BrdU or vehicle treatments were continued during the drug treatments as well.

microorganism = assay: antibiotic activity screen, in vitro broth microdilution assay (overall statement); assay type: cell-based; details: vs azithromycin and erythromycin / reference compounds
Description: (§3) This is advantageous because use of the compounds of the present approach as therapeutic agents will have less of an impact on the development of antibiotic resistance. For example, embodiments of the present approach were screened for antibiotic activity, using the in vitro broth microdilution assay. […] The assay conditions, described by the Clinical and Laboratory Standards Institute were used for preparation of the inoculum, growth medium, and end point reading. Test substance was dissolved in 100% DMSO, suspended completely by vortexing, diluted by 2-fold serial titrations in the same vehicle, for a total of 11 test concentrations. A 4 μL aliquot of each dilution was added to 196 μL of broth medium seeded with the organism suspension in wells of a 96 well plate (bacterial count: 2-8×10(5) colony forming units/mL final). The final volume was 200 μL in each well and the final DMSO concentration was 2 percent. Test concentrations were 0.1 to 100 μM. Following incubation, the test plates were visually examined and wells were scored for growth or complete growth inhibition to define the minimum inhibitory concentration. Each test substance was evaluated with replicates. Vehicle controls and an active reference agent were used as blank and positive controls. Note that MRSA represents methicillin-resistant Staphylococcus aureus, and VRE represents vancomycin resistant Enterococcus.

[1] = system: Acinetobacter baumannii ATCC 17978; assay: in vitro broth microdilution assay (MIC); assay type: cell-based; details: ATCC17978
Description: as §3

[2] = system: Enterococcus faecium ATCC 700221 VanA VRE; assay: in vitro broth microdilution assay (MIC); assay type: cell-based
Description: as §3

[3] = system: Haemophilus influenzae ATCC 49247; assay: in vitro broth microdilution assay (MIC); assay type: cell-based; details: ATCC49247; Haemophilus influenzae ATCC 49247, QC strain
Description: as §3

[4] = system: Staphylococcus aureus ATCC 29213; assay: in vitro broth microdilution assay (MIC); assay type: cell-based; details: ATCC29213; Staphylococcus aureus ATCC 29213, QC strain
Description: as §3

[5] = system: Klebsiella pneumoniae ATCC 43816; assay: in vitro broth microdilution assay (MIC); assay type: cell-based; details: ATCC43816
Description: as §3

[6] = system: Enterococcus faecalis ATCC 29212; assay: in vitro broth microdilution assay (MIC); assay type: cell-based; details: ATCC29212; Enterococcus faecalis ATCC 29212, QC strain
Description: as §3

[7] = system: Escherichia coli ATCC 25922; assay: in vitro broth microdilution assay (MIC); assay type: cell-based; details: ATCC25922; Escherichia coli ATCC 25922, QC strain
Description: as §3

[8] = system: Pseudomonas aeruginosa ATCC 27853; assay: in vitro broth microdilution assay (MIC); assay type: cell-based; details: ATCC27853; Pseudomonas aeruginosa ATCC 27853, QC strain
Description: as §3

[9] = system: Staphylococcus aureus ATCC 33591 MRSA; assay: in vitro broth microdilution assay (MIC); assay type: cell-based
Description: as §3

[10] = system: Escherichia coli JW5503 DEL-tolC; assay: in vitro broth microdilution assay (MIC); assay type: cell-based; details: JW5503DELTOLC
Description: as §3

[11] = system: Streptococcus pneumoniae ATCC 49619; assay: in vitro broth microdilution assay (MIC); assay type: cell-based; details: ATCC49619; Streptococcus pneumoniae ATCC 49619, QC strain
Description: as §3

[12] = system: MRC-5 cells treated with BrdU (senescent fibroblasts); assay: SRB assay, BrdU-treated (senescent) MRC-5 cells; assay type: cell-based, human
Description: For example, in one assay bromodeoxyuridine (5-bromo-2′-deoxyuridine), also known as BrdU, was used to induce senescence in a cell population. BrdU is an analog of the nucleoside thymidine commonly used to identify proliferating cells. BrdU induces controlled DNA damage, and drives cells towards senescence with high efficiency. In the BrdU assay, normal fibroblasts are subjected to prolonged culture (8-days) in the presence of BrdU at 100 μM to induce controlled DNA-damage and senescence. […] Senolytic activity was assessed using the sulforhodamine B assay, also known in the art as the SRB assay. This assay measures the amount of protein remaining attached to the tissue-culture dishes, and is a surrogate marker for cell viability.
FIG. 1 compares SRB assay results for different concentrations of Azithromycin (100 µM and 50 μM) and Compound [I] (100 μM and 50 μM) of the present approach, on both control MRC-5 cells and MRC-5 cells treated with BrdU. […] (labelled as “Azi-Gal” in FIG. 1) for another 5 days. After that, the SRB assay was performed to determine the effects of the drug on cell viability, using normal MRC-5 cells as the control. […] However, at 50 μM Azithromycin had no effect on either the control cells or senescent cells.
as §2
Sulphorhodamine B assay: After the incubation of the plates cell viability was measured by Sulphorhodamine B assay (SRB). The assay is based on the measurement of cellular protein contents. Cells were fixed with 10% Trichloroacetic acid (TCA) for 1 hour at […], and were dried overnight at room temperature. Then, plates were incubated with SRB for 30 min, washed twice with 1% acetic acid and air dried for at least 1 h. Finally, the protein-bound dye was dissolved in a 10 mM Tris, pH 8.8, solution and read using a plate reader at 540-nm.

normal MRC-5 cells = assay: Images of MRC-5 fibroblasts without BrdU pre-treatment; assay type: cell-based, human; details: 50 μM
Description: as §1, §2

CC[C@H]1OC(=O)[C@H](C)[C@@H](O[C@@H]2C[C@@](C)(OC)[C@@H](O)[C@H](C)O2)[C@H](C)[C@@H](O[C@@H]2O[C@H](C)C[C@H](N(C)C)[C@H]2OC(=O)OCc2ccc(O[C@@H]3O[C@H](COC(C)=O)[C@H](OC(C)=O)[C@H](OC(C)=O)[C@H]3OC(C)=O)c([N+](=O)[O-])c2)[C@](C)(O)C[C@@H](C)CN(C)[C@H](C)[C@@H](O)[C@]1(C)O [Compound [I], [(2R,3S,4S,5R,6S)-3,4,5-triacetoxy-6-[4-[[(2S,3R,4S,6R)-4-(dimethylamino)-2-[[(2R,3S,4R,5R,8R,10R,11R,12S,13S,14R)-2-ethyl-3,4,10-trihydroxy-13-[(2S,4R,5S,6S)-5-hydroxy-4-methoxy-4,6-dimethyl-tetrahydropyran-2-yl]oxy-3,5,6,8,10,12,14-heptamethyl-15-oxo-1-oxa-6-azacyclopentadec-11-yl]oxy]-6-methyl-tetrahydropyran-3-yl]oxycarbonyloxymethyl]-2-nitro-phenoxy]tetrahydropyran-2-yl]methyl acetate] was tested, and the “effect on senescent MRC-5 cells (images)” value (senescent MRC-5 cells) was “induced cell death”, the “antibiotic activity compared to macrolide antibiotics” value (microorganism) was “less antibiotic activity” and the MIC [1] was 100 µM. For the same compound, the MIC [2] was > 100 µM, the MIC [3] was 3.12 µM and the MIC [4] was 6.25 µM. The MIC [5] was 50 µM, the MIC [6] was 25 µM and the MIC [7] was 12.5 µM. The MIC [8] was > 100 µM, the MIC [9] was > 100 µM and the MIC [10] was 6.25 µM. The MIC [11] was 0.78 µM, the “effect on senescent cells (SRB)” value ([12]; 10 μM) was “effective” and the “selectivity towards senescent MRC-5 fibroblasts (SRB)” value ([12]; 50 μM, senescent vs control MRC-5) was “exceptional selectivity”. For the same compound, the “effect on normal MRC-5 cells (images)” value (normal MRC-5 cells) was “little effect”.
